Data taken from ChEMBL document CHEMBL1201862, “PubChem BioAssay data set” (2004).
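Step 1: Grow cells in 96-well plates. Step 2: Expose to compound for 48 hours at 5 concentrations. Step 3: Interpolate endpoints linearly; if unreached, use highest concentration. At the GI50, growth is halved.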 Activity calls are given as the source filed them. No stated cut-off is given here; in the data, active = GI50 up to about 1.1 µM and inactive = higher.

Legend:
Experiment in all cases: inhibition of tumour cell growth, NCI panel, 48 h
786-0 = tested on: 786-0
A498 = tested on: A498
A549 = tested on: A549
ACHN = tested on: ACHN
CAKI-1 = tested on: CAKI-1
CCRF-CEM = tested on: CCRF-CEM
COLO 205 = tested on: COLO 205
DLD-1 = tested on: DLD-1
DMS-114 = tested on: DMS-114
DMS-273 = tested on: DMS-273
EKVX = tested on: EKVX
HCC 2998 = tested on: HCC 2998
HCT-116 = tested on: HCT-116
HCT-15 = tested on: HCT-15
HL-60 = tested on: HL-60
HOP-62 = tested on: HOP-62
HOP-92 = tested on: HOP-92
HT-29 = tested on: HT-29
IGROV-1 = tested on: IGROV-1
K562 = tested on: K562
KM-20L2 = tested on: KM-20L2
KM12 = tested on: KM12
LOX IMVI = tested on: LOX IMVI
LXFL 529 = tested on: LXFL 529
M14 = tested on: M14
M19-MEL = tested on: M19-MEL
MOLT-4 = tested on: MOLT-4
Malme-3M = tested on: Malme-3M
NCI-H226 = tested on: NCI-H226
NCI-H23 = tested on: NCI-H23
NCI-H460 = tested on: NCI-H460
NCI-H522 = tested on: NCI-H522
OVCAR-3 = tested on: OVCAR-3
OVCAR-4 = tested on: OVCAR-4
OVCAR-5 = tested on: OVCAR-5
OVCAR-8 = tested on: OVCAR-8
RPMI-8226 = tested on: RPMI-8226
RXF 393 = tested on: RXF 393
SF-268 = tested on: SF-268
SF-295 = tested on: SF-295
SF-539 = tested on: SF-539
SK-MEL-28 = tested on: SK-MEL-28
SK-MEL-2 = tested on: SK-MEL-2
SK-MEL-5 = tested on: SK-MEL-5
SK-OV-3 = tested on: SK-OV-3
SN12C = tested on: SN12C
SNB-19 = tested on: SNB-19
SNB-75 = tested on: SNB-75
SNB-78 = tested on: SNB-78
SW-620 = tested on: SW-620
TK-10 = tested on: TK-10
U-251 = tested on: U-251
UACC-257 = tested on: UACC-257
UACC-62 = tested on: UACC-62
UO-31 = tested on: UO-31
SR = tested on: SR

SMILES: Cc1ccc(C(=O)/C=C/c2ccccc2O)c(C)c1
- GI50 (786-0): > 100 µM (inactive)
- GI50 (A498): > 100 µM (inactive)
- GI50 (A549): > 100 µM (inactive)
- GI50 (ACHN): > 100 µM (inactive)
- GI50 (CAKI-1): > 100 µM (inactive)
- GI50 (CCRF-CEM): 30.1 µM (inactive)
- GI50 (COLO 205): > 100 µM (inactive)
- GI50 (DLD-1): > 100 µM (inactive)
- GI50 (DMS-114): > 100 µM (inactive)
- GI50 (DMS-273): > 100 µM (inactive)
- GI50 (EKVX): > 100 µM (inactive)
- GI50 (HCC 2998): > 100 µM (inactive)
- GI50 (HCT-116): > 100 µM (inactive)
- GI50 (HCT-15): > 100 µM
- GI50 (HL-60): > 100 µM (inactive)
- GI50 (HOP-62): > 100 µM (inactive)
- GI50 (HOP-92): > 100 µM (inactive)
- GI50 (HT-29): 0.8 µM (active)
- GI50 (IGROV-1): > 100 µM (inactive)
- GI50 (K562): > 100 µM (inactive)
- GI50 (KM-20L2): > 100 µM (inactive)
- GI50 (KM12): > 100 µM (inactive)
- GI50 (LOX IMVI): > 100 µM (inactive)
- GI50 (LXFL 529): > 100 µM (inactive)
- GI50 (M14): > 100 µM (inactive)
- GI50 (M19-MEL): 1.35 µM (inactive)
- GI50 (MOLT-4): 94.8 µM (inactive)
- GI50 (Malme-3M): > 100 µM (inactive)
- GI50 (NCI-H226): > 100 µM (inactive)
- GI50 (NCI-H23): > 100 µM (inactive)
- GI50 (NCI-H460): > 100 µM (inactive)
- GI50 (NCI-H522): > 100 µM (inactive)
- GI50 (OVCAR-3): > 100 µM (inactive)
- GI50 (OVCAR-4): > 100 µM (inactive)
- GI50 (OVCAR-5): > 100 µM (inactive)
- GI50 (OVCAR-8): > 100 µM (inactive)
- GI50 (RPMI-8226): 18.7 µM (inactive)
- GI50 (RXF 393): > 100 µM (inactive)
- GI50 (SF-268): 93.3 µM (inactive)
- GI50 (SF-295): > 100 µM (inactive)
- GI50 (SF-539): > 100 µM (inactive)
- GI50 (SK-MEL-28): > 100 µM (inactive)
- GI50 (SK-MEL-2): > 100 µM (inactive)
- GI50 (SK-MEL-5): > 100 µM (inactive)
- GI50 (SK-OV-3): > 100 µM (inactive)
- GI50 (SN12C): > 100 µM (inactive)
- GI50 (SNB-19): > 100 µM (inactive)
- GI50 (SNB-75): 1.24 µM (inactive)
- GI50 (SNB-78): > 100 µM (inactive)
- GI50 (SW-620): > 100 µM (inactive)
- GI50 (TK-10): > 100 µM (inactive)
- GI50 (U-251): > 100 µM (inactive)
- GI50 (UACC-257): > 100 µM (inactive)
- GI50 (UACC-62): > 100 µM (inactive)
- GI50 (UO-31): > 100 µM (inactive)

SMILES: O=C(OCc1ccccc1)OOC(=O)OCc1ccccc1
- GI50 (A498): > 100 µM (inactive)
- GI50 (A549): > 100 µM (inactive)
- GI50 (ACHN): > 100 µM (inactive)
- GI50 (CAKI-1): > 100 µM (inactive)
- GI50 (CCRF-CEM): > 100 µM (inactive)
- GI50 (COLO 205): > 100 µM (inactive)
- GI50 (DLD-1): > 100 µM (inactive)
- GI50 (DMS-114): > 100 µM (inactive)
- GI50 (EKVX): > 100 µM (inactive)
- GI50 (HCC 2998): > 100 µM (inactive)
- GI50 (HCT-116): > 100 µM (inactive)
- GI50 (HCT-15): > 100 µM
- GI50 (HL-60): > 100 µM (inactive)
- GI50 (HOP-62): > 100 µM (inactive)
- GI50 (HOP-92): > 100 µM (inactive)
- GI50 (HT-29): > 100 µM (inactive)
- GI50 (IGROV-1): > 100 µM (inactive)
- GI50 (K562): > 100 µM (inactive)
- GI50 (KM-20L2): > 100 µM (inactive)
- GI50 (KM12): > 100 µM (inactive)
- GI50 (LXFL 529): > 100 µM (inactive)
- GI50 (M14): > 100 µM (inactive)
- GI50 (M19-MEL): > 100 µM (inactive)
- GI50 (MOLT-4): > 100 µM (inactive)
- GI50 (Malme-3M): > 100 µM (inactive)
- GI50 (NCI-H23): > 100 µM (inactive)
- GI50 (NCI-H460): > 100 µM (inactive)
- GI50 (NCI-H522): > 100 µM (inactive)
- GI50 (OVCAR-3): > 100 µM (inactive)
- GI50 (OVCAR-4): > 100 µM (inactive)
- GI50 (OVCAR-5): > 100 µM (inactive)
- GI50 (RPMI-8226): > 100 µM (inactive)
- GI50 (RXF 393): > 100 µM (inactive)
- GI50 (SF-268): > 100 µM (inactive)
- GI50 (SF-295): > 100 µM (inactive)
- GI50 (SF-539): > 100 µM (inactive)
- GI50 (SK-MEL-28): > 100 µM (inactive)
- GI50 (SK-MEL-2): > 100 µM (inactive)
- GI50 (SK-MEL-5): > 100 µM (inactive)
- GI50 (SK-OV-3): > 100 µM (inactive)
- GI50 (SN12C): > 100 µM (inactive)
- GI50 (SNB-19): > 100 µM (inactive)
- GI50 (SNB-75): 99.1 µM (inactive)
- GI50 (SNB-78): > 100 µM (inactive)
- GI50 (SR): > 100 µM (inactive)
- GI50 (SW-620): > 100 µM (inactive)
- GI50 (U-251): > 100 µM (inactive)
- GI50 (UACC-257): > 100 µM (inactive)
- GI50 (UACC-62): > 100 µM (inactive)
- GI50 (UO-31): > 100 µM (inactive)
